Assay results reported in PMC12645437, “Orthogonal IMiD-Degron Pairs Induce Selective Protein Degradation in Cells” (ACS Chemical Biology, 2025).
Where “and” joins values, the source holds several entries; their conditions need not be identical. Identical values can stand only once.

Columns and labels:
[1] = target: T1, endogenous IKZF3 in Jurkat cells (Homo sapiens, UniProt Q96SW2+Q9UKT9); test: Western blot for endogenous IKZF3; format: cell-based; conditions: 18 h
T1 construct: endogenous in cells; host or cells: Jurkat (transduced with ZF-EGFP constructs, or untransduced)

[2] = target: T2, WT IKZF3-derived degron fused to EGFP (Homo sapiens, UniProt Q96SW2+Q9UKT9); test: Ratiometric EGFP:mCherry flow cytometry degradation assay, 18 h; format: cell-based; conditions: Jurkat
T2 construct: Plasmid: pLVX-Sprout-IKZF3 130-189aa (WT); expressed in transfected cells

[3] = target: T3, endogenous IKZF1 in Jurkat cells (Homo sapiens, UniProt Q13422+Q96SW2); test: Endogenous IKZF1 immunostaining, fluorescent antibody flow cytometry assay; format: cell-based; conditions: 18 h
T3 construct: endogenous in cells; host or cells: Jurkat (untransduced for immunostaining; WEIS-EGFP-transduced for the blot)
Experimental: As we sought to screen a large number of mutant ZF degrons with different mutation combinations, we pursued a library screen approach similar to that previously employed by Sievers et al. and Jan et al. , Only the most promising compounds from the original set of 36 were used for the library screen. To help narrow the candidates, a subset of compounds was tested for endogenous IKZF1 degradation in Jurkat cells using a fluorescent antibody flow cytometry assay (Figure S5). […] Thalidomide and lenalidomide were also included as controls.
Endogenous IKZF1 Immunostaining
37 °C and 5% CO2. Following incubation, cells were stained with LIVE/DEAD™ Fixable Aqua Dead Cell Stain (Thermo) diluted 1000X in PBS for 30 min at room temperature and then incubated with Human TruStain FcX block (Biolegend) diluted 40X in PBS + 1% FBS (Gibco) for 10 min at room temperature. Intranuclear staining of IKZF1 was carried out using the Transcription Factor Buffer Set (BD Bioscience) according to the manufacturer's protocol and staining with IKZF1 AF488 antibody (clone R32-1149, BD Bioscience) diluted 40X for 30 minutes at room temperature. Cells were acquired on a Cytoflex S (Beckman Coulter) and data analysed using FlowJo 10.8.1 9 (BD).

[4] = target: T4, Q147A mutant degron (ANQS) fused to EGFP (Homo sapiens, UniProt Q96SW2+Q9UKT9, Q147A); test: Ratiometric EGFP:mCherry flow cytometry degradation assay, 18 h; format: cell-based
T4 construct: pLVX-Sprout-IKZF3 130-189aa Q147A (ANQS); expressed in transfected cells

[5] = tested on: library of 8380 IKZF3 degrons fused to EGFP in Jurkat cells; test: Pooled mutant ZF degron library screen (FACS EGFPlow vs EGFP+, NGS), 18 h; format: cell-based, human;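 as to logFC: Log2 fold change of EGFPlow over EGFP+ representation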

T4 sequence (Q9UKT9 130-189 Q147A): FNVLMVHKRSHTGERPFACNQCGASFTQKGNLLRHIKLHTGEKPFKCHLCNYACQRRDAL
T4 sequence (Q96SW2 whole entry, the tested form may be a part): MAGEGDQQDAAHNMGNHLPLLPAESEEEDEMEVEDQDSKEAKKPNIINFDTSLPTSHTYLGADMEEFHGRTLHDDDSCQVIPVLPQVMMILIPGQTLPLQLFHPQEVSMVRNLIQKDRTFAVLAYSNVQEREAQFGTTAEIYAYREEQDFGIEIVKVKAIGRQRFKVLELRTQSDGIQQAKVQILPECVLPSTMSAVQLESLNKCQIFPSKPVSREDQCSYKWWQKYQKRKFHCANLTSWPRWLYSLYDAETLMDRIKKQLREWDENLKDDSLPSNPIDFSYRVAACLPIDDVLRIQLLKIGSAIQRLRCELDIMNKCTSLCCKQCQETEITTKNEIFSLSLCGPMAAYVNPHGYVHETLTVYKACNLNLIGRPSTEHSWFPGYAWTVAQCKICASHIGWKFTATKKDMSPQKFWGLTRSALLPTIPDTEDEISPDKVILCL
T4 sequence (Q16531 whole entry partner, the tested form may be a part): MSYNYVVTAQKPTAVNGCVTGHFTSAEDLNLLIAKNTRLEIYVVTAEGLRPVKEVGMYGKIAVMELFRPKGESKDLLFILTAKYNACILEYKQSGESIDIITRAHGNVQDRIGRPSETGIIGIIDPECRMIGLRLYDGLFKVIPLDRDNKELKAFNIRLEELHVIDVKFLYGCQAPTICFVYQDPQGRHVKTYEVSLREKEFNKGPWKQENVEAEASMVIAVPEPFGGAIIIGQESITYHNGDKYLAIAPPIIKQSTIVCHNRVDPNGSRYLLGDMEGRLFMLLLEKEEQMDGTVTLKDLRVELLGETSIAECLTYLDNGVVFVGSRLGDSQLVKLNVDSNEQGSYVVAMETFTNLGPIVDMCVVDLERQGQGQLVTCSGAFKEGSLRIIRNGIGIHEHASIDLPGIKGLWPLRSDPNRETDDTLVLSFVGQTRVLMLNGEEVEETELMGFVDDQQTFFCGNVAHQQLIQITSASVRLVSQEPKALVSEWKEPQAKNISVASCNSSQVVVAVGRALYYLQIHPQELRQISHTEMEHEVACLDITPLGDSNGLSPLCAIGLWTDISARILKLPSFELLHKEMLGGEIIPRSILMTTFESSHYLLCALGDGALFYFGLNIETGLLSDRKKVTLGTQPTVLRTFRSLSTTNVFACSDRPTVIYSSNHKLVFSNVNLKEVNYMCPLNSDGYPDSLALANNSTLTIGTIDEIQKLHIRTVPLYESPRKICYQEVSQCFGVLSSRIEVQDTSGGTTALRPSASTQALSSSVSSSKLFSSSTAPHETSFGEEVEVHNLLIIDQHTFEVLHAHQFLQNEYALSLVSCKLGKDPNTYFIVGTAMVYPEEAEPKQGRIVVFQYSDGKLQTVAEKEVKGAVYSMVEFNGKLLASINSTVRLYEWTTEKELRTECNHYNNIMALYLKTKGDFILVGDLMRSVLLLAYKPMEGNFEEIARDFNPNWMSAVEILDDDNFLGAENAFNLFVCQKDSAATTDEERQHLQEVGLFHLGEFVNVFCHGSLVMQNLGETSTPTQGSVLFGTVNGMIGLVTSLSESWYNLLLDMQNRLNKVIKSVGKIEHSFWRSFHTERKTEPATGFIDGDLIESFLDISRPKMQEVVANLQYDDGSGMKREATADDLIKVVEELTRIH
T2 sequence (Q9UKT9 130-189): as the sequence (Q9UKT9 130-189 Q147A) above, with A18Q counted along it
T2 sequence (Q96SW2 whole entry, the tested form may be a part): as the sequence (Q96SW2 whole entry, the tested form may be a part) above
T2 sequence (Q16531 whole entry partner, the tested form may be a part): as the sequence (Q16531 whole entry partner, the tested form may be a part) above
T1 sequence (Q9UKT9 whole entry): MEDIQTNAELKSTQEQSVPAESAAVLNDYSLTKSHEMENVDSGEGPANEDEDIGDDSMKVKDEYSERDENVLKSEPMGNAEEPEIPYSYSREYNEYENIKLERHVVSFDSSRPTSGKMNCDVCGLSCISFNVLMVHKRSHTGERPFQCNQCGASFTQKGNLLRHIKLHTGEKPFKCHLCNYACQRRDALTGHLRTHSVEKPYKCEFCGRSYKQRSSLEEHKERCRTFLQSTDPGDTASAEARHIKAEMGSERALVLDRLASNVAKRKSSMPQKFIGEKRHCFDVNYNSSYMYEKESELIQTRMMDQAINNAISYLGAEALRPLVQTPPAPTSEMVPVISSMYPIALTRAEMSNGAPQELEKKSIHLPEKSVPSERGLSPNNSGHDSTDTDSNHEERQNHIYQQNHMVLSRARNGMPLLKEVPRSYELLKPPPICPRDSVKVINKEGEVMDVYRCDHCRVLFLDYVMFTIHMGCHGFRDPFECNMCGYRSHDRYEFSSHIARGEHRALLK
T1 sequence (Q96SW2 whole entry): as the sequence (Q96SW2 whole entry, the tested form may be a part) above
T1 sequence (Q16531 whole entry partner): as the sequence (Q16531 whole entry partner, the tested form may be a part) above
T3 sequence (Q13422 whole entry): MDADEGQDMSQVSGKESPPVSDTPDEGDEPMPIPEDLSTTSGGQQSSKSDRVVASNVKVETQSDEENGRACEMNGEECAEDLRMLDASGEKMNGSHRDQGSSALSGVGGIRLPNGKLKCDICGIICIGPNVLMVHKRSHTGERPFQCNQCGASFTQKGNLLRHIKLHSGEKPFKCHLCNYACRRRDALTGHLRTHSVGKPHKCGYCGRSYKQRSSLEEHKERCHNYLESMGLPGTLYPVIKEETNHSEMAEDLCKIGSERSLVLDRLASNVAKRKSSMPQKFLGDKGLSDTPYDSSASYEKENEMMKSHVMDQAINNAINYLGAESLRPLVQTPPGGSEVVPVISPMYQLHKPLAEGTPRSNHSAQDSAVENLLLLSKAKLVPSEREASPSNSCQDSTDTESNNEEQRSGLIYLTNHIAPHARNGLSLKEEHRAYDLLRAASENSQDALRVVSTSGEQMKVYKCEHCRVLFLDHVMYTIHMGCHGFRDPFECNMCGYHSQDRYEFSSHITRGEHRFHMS
T3 sequence (Q96SW2 whole entry): as the sequence (Q96SW2 whole entry, the tested form may be a part) above
T3 sequence (Q16531 whole entry partner): as the sequence (Q16531 whole entry partner, the tested form may be a part) above

CC(C)(C)c1ccc2c(c1)C(=O)N(C1CCC(=O)NC1=O)C2=O (stereo not shown) [Compound 19]
endogenous IKZF3 levels (Western blot) ([1]; transduced Jurkat cells): remained unaffected
degradation of endogenous IKZF3 (Western blot) ([1]; untransduced Jurkat cells): do not induce degradation of endogenous IKZF3
Degradation pDC50 WT ([2]; Fig 2B): 6.05
DC50 ([2]; WT degron, Fig 5A): 759 nM
pDC50 ([2]; WT degron, Fig 5A): 6.12
degradation of endogenous IKZF1 [3]: did not induce degradation of endogenous IKZF1
DC50 ([4]; ANQS, Jurkat, 18 h, Fig 5A): 537 nM
pDC50 ([4]; ANQS, Jurkat, 18 h, Fig 5A): 6.27
Selectivity (WT/mutant) ([4]; DC50(WT)/DC50(ANQS), Fig 5A): 1.4
Dmax ([4]; Jurkat, 18 h, Fig 2B, read-out: DMax Q147A/%): 87%
Log2FC ([5]; WT degron, residues 146/147/149/150/152/153/154/155/167: FQNQGASFL): -1.8291 and -1.83
logFC ([5]; degron residues 146/147/149/150/152/153/154/155/167: FADIGAAFL): 3.42
logFC ([5]; degron residues 146/147/149/150/152/153/154/155/167: FADIGACFL): 2.8476
logFC ([5]; degron residues 146/147/149/150/152/153/154/155/167: FADIGADFL): 0.3339
logFC ([5]; degron residues 146/147/149/150/152/153/154/155/167: FADIGAEFL): 0.9661
Log2FC ([5]; degron residues 146/147/149/150/152/153/154/155/167: FAEIGAAFL): 3.8965
Log2FC ([5]; degron residues 146/147/149/150/152/153/154/155/167: FAEIGARFL): 3.8372
Log2FC ([5]; degron residues 146/147/149/150/152/153/154/155/167: FAEVGAKFL (AEVK)): 3.9176 and 3.92 and 3.918
Log2FC ([5]; degron residues 146/147/149/150/152/153/154/155/167: FAEVGARFL): 3.9084
Log2FC ([5]; degron residues 146/147/149/150/152/153/154/155/167: FAEVGASFL): 3.8698
Log2FC ([5]; degron residues 146/147/149/150/152/153/154/155/167: FANQGASFL (ANQS)): -0.98
Log2FC ([5]; degron residues 146/147/149/150/152/153/154/155/167: FAPIGASFL (APIS)): 3.73
Log2FC ([5]; degron residues 146/147/149/150/152/153/154/155/167: FFDIGAPFL (FDIP)): 3.9195 and 3.92 and 3.919
Log2FC ([5]; degron residues 146/147/149/150/152/153/154/155/167: FFEVGAPFL (FEVP)): 3.9979 and 4.00 and 3.998
Log2FC ([5]; degron residues 146/147/149/150/152/153/154/155/167: FFPIGAPFL): 3.9164
Log2FC ([5]; degron residues 146/147/149/150/152/153/154/155/167: FGEVGARFL): 3.8587
Log2FC ([5]; degron residues 146/147/149/150/152/153/154/155/167: FGPIGACFL): 3.9002
Log2FC ([5]; degron residues 146/147/149/150/152/153/154/155/167: FGPVGACFL): 3.8841
Log2FC ([5]; degron residues 146/147/149/150/152/153/154/155/167: FGPVGAMFL): 3.8585
Log2FC ([5]; degron residues 146/147/149/150/152/153/154/155/167: FHEIGAPFL (HEIP)): 4.0013 and 4.00 and 4.001
Log2FC ([5]; degron residues 146/147/149/150/152/153/154/155/167: FWEIGACFL): 3.8152
Log2FC ([5]; degron residues 146/147/149/150/152/153/154/155/167: FWEIGAKFL (WEIK)): 3.9155 and 3.96 and 3.955
Log2FC ([5]; degron residues 146/147/149/150/152/153/154/155/167: FYEIGAKFL): 3.9035
Log2FC ([5]; degron residues 146/147/149/150/152/153/154/155/167: FYEIGAPFL): 3.8608
Log2FC ([5]; degron residues 146/147/149/150/152/153/154/155/167: FYEVGAAFL): 3.8726
Log2FC ([5]; degron residues 146/147/149/150/152/153/154/155/167: FYNIGAPFL): 3.8168
Log2FC ([5]; degron residues 146/147/149/150/152/153/154/155/167: FYPIGAPFL): 3.8626
